Laboratory results from the Kinase Knowledgebase extract (Sharma et al. 2016).

Columns and labels:
MAPK14 = MAPK14 (UniProt Q16539); assay: SAPK2-alpha Kinase Inhibition
CDK2 [1] = target: CDK2 (UniProt P24941); assay: Enzyme Assay
CDK2 [2] = target: CDK2 (UniProt P24941)

Sequence of MAPK14 (Q16539 whole entry, looked up): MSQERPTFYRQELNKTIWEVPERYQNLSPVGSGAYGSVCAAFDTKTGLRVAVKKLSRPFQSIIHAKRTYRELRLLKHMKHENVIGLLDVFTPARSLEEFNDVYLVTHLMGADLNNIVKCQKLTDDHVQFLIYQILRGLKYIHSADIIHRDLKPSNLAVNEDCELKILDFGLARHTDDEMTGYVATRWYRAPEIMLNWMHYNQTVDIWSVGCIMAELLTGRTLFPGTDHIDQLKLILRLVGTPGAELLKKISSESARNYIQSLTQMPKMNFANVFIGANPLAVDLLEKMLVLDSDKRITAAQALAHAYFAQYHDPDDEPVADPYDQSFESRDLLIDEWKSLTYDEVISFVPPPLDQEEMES

SMILES	IC50 (MAPK14)	IC50 (CDK2 [1])	IC50 (CDK2 [2])
COC(=O)c1cc(Nc2nccc(-c3sc(C)nc3C)n2)ccc1Cl		1.1 µM	
COc1ccc(Nc2nccc(-c3sc(C)nc3C)n2)c(O)c1		0.6 µM	
CNc1nc(C)c(-c2ccnc(Nc3ccc(OC)cc3)n2)s1		0.8 µM	
Cc1nc(C)c(-c2ccnc(Nc3cccc(NC(=N)N)c3)n2)s1		1.4 µM	
CNc1nc(C)c(-c2ccnc(Nc3cccc(F)c3)n2)s1		0.6 µM	
CNc1nc(C)c(-c2ccnc(Nc3ccc(F)c(F)c3)n2)s1		1.2 µM	

Second part, the compound after the results:

IC50 (MAPK14)	IC50 (CDK2 [1])	IC50 (CDK2 [2])	SMILES
> 20 µM			Cc1nc(C)c(-c2ccnc(Nc3cccc([N+](=O)[O-])c3)n2)s1
	0.6 µM		COCCOC(=O)c1cc(Nc2nccc(-c3sc(C)nc3C)n2)ccc1F
	0.7 µM		Cc1nc(C)c(-c2ccnc(Nc3ccc(Cc4ccncc4)cc3)n2)s1
	10 µM		CNc1nc(C)c(-c2ccnc(Nc3ccc(Cl)c(C(F)(F)F)c3)n2)s1
> 20 µM		9 µM	Cc1nc(C)c(-c2ccnc(Nc3ccc(Cl)cc3)n2)s1
	2 µM		CNc1nc(C)c(-c2ccnc(Nc3cc(F)cc(F)c3)n2)s1
	1.5 µM		Cc1nc(C)c(-c2ccnc(Nc3ccc([N+](C)(C)C)cc3)n2)s1
	3 µM		CNc1nc(C)c(-c2ccnc(Nc3cccc(Cl)c3)n2)s1
> 20 µM			Cc1nc(C)c(-c2ccnc(Nc3ccc(F)cc3)n2)s1
